Measured values taken from ChEMBL document CHEMBL1142347, “Synthesis and antibiotic activity of a small molecules library of 1,2,3-triazole derivatives” (2008).
Calls of active or inactive are those of the source. The rule behind the calls is not given here.

How the values were obtained:
Type in all cases: functional
[1] = tested on: Staphylococcus aureus; assay: Growth inhibition of Staphylococcus aureus ATCC 25923 at 0.1 mg/ml after 24 hrs; conditions: for inhibition at 100 µg/mL: ATCC 25923, 24 h
[2] = tested on: Staphylococcus aureus; assay: Growth inhibition of Staphylococcus aureus 1199B expressing NorA at 0.1 mg/ml after 24 hrs in presence of 4 mg/L ciprofloxacin
[3] = tested on: Staphylococcus aureus; assay: Growth inhibition of Staphylococcus aureus RN4220 expressing MsrA at 0.1 mg/ml after 24 hrs in presence of 16 mg/L erythromycin
[4] = tested on: Staphylococcus aureus; assay: Growth inhibition of Staphylococcus aureus 1199B expressing NorA at 0.1 mg/ml after 24 hrs
[5] = tested on: Staphylococcus aureus; assay: Growth inhibition of Staphylococcus aureus RN4220 expressing MsrA at 0.1 mg/ml after 24 hrs; conditions: for inhibition at 100 µg/mL: RN4220, 24 h

Compound	inhibition at 100 µg/mL [1] [%]	Activity [2]	Inhibition [3] [%]	Activity [4]	inhibition at 100 µg/mL [5] [%]	Inhibition [2] [%]	inhibition at 100 µg/mL [4] [%]	Activity [1]	Activity [3]	Activity [5]
COC(=O)c1cn(-c2cccnc2)nn1	16	inactive	78.3	inactive	11	–	–	–	–	–
COC(=O)c1cn(Cc2ccccc2)nn1	25	–	33	–	15	18	15	–	–	–
CCOC(OCC)c1cn(-c2cccnc2)nn1	–	inactive	–	–	–	–	6.3	inactive	inactive	inactive
COc1ccc(-n2cc(CN3C(=O)c4ccccc4C3=O)nn2)cc1	24	–	48	–	24.1	18	15	–	–	–
C=CCn1cc(COc2ccccc2)nn1	16	–	38	–	32	20	15	–	–	–
COc1ccc(-n2cc(COc3ccccc3)nn2)cc1	10	–	39	–	21	16	11	–	–	–
O=C1c2ccccc2C(=O)N1Cc1cn(-c2ccccc2)nn1	–	–	41	–	24	17	17	inactive	–	–
CCOC(OCC)c1cn(-c2ccccc2)nn1	–	inactive	–	inactive	–	–	–	inactive	inactive	inactive
CCOC(OCC)c1cn(-c2ccc(OC)cc2)nn1	–	–	25	–	9	71	11	inactive	–	–
c1ccc(OCc2cn(-c3cccnc3)nn2)cc1	22	–	58	–	30	56	22	–	–	–
O=C(O)c1cn(Cc2ccccc2)nn1	–	–	22	–	31	9	8	inactive	–	–
c1ccc(Cn2cc(COc3ccccc3)nn2)cc1	12	–	43	–	32.7	20	21	–	–	–
OCc1cn(Cc2ccccc2)nn1	6.1	inactive	–	–	–	–	6	–	inactive	inactive
C=CCn1cc(C(OCC)OCC)nn1	17	inactive	40	inactive	6	–	–	–	–	–
O=C1c2ccccc2C(=O)N1Cc1cn(-c2ccc([N+](=O)[O-])cc2)nn1	22	–	72	–	48.1	38	35	–	–	–
O=C1c2ccccc2C(=O)N1Cc1cn(Cc2ccccc2)nn1	–	–	44	–	30	36	57	inactive	–	–
O=C1c2ccccc2C(=O)N1Cc1cn(-c2cccnc2)nn1	24	–	71	–	46	26.6	22	–	–	–
C=CCn1cc(C(=O)OC)nn1	21	–	71	–	44	16	16	–	–	–
COc1ccc(-n2cc(C(=O)O)nn2)cc1	–	–	45.8	–	38	24	21	inactive	–	–
CCCCCCCCCCCCn1cc(CN2C(=O)c3ccccc3C2=O)nn1	20	–	65	–	43	45	40	–	–	–
O=C(O)c1cn(-c2cccnc2)nn1	14	–	78	–	52.6	24	23	–	–	–
CCOC(OCC)c1cn(Cc2ccccc2)nn1	32	–	28	–	19	8	6	–	–	–
c1ccc(OCc2cn(-c3ccccc3)nn2)cc1	31	–	41	–	11	26	11	–	–	–
O=C(O)c1cn(-c2ccccc2)nn1	–	–	74.9	–	54	15	18	inactive	–	–
C=CCn1cc(CN2C(=O)c3ccccc3C2=O)nn1	–	–	36	–	33	23	18	inactive	–	–
CCCCCCCCn1cc(CN2C(=O)c3ccccc3C2=O)nn1	–	–	24	–	40	25	27.4	inactive	–	–
O=[N+]([O-])c1ccc(-n2cc(COc3ccccc3)nn2)cc1	27	–	56	–	34	24	18	–	–	–
C=CCn1cc(C(=O)O)nn1	–	–	–	inactive	–	6	–	inactive	inactive	inactive
